Here are results for 20 compounds from ChEMBL document CHEMBL1157873, “Synthesis and biological activity of Delta-5,6-norcantharimides: importance of the 5,6-bridge” (Eur J Med Chem, 2010).

Holding throughout (format): functional
The test system of one test is HT-29. Briefly: Cytotoxicity against human HT-29 cells at 100 uM after 72 hrs by MTT assay. The note with it: HT-29, 72 h. (In general: Tetrazolium assays rely on reduction of a dye to a coloured formazan, in cell work by metabolically active cells.)
The subject of the next test is SW480. Briefly: Cytotoxicity against human SW480 cells at 100 uM after 72 hrs by MTT assay. The conditions noted are these: SW480, 72 h.
A further test concerns NCI-H460. Briefly: Cytotoxicity against human H460 cells at 100 uM after 72 hrs by MTT assay. The conditions noted are these: NCI-H460, 72 h.
In another test the test system is MCF7. Briefly: Cytotoxicity against human MCF7 cells at 100 uM after 72 hrs by MTT assay. The note with it: MCF7, 72 h.
For a further test, the system named is A2780. Description: Cytotoxicity against human A2780 cells at 100 uM after 72 hrs by MTT assay. The conditions noted are these: A2780, 72 h.
The next test has as its system DU-145. Briefly: Cytotoxicity against human DU145 cells at 100 uM after 72 hrs by MTT assay. The conditions noted are these: DU-145, 72 h.
In the next test the test system is A-431. Briefly: Cytotoxicity against human A431 cells at 100 uM after 72 hrs by MTT assay. The conditions noted are these: A-431, 72 h.
Test [1] can be described thus: Cytotoxicity against human BE(2)-C cells at 100 uM after 72 hrs by MTT assay.
Test [2] can be described thus: Cytotoxicity against human SJ-G2 cells at 100 uM after 72 hrs by MTT assay. The conditions noted are these: SJ-G2, 72 h.

In the case of `O=C(O)[C@H](Cc1c[nH]cn1)N1C(=O)[C@H]2CNC[C@H]2C1=O`, the inhibition (usually the share of the control response that was lost under treatment) at 100 µM in the test with HT-29 is 10%; in the test on SW480, below 10%; with NCI-H460, below 10%; in the test with MCF7 it was below 10%; with A2780, below 10%; in the test with DU-145, below 10%. Moreover, the inhibition at 100 µM (in the test with A-431; in test [1]; in test [2]) was below 10% in each case.
As for `CCOC(=O)C[C@@H](C(=O)OCC)N1C(=O)[C@H]2CNC[C@H]2C1=O`, the inhibition at 100 µM in the test on HT-29 was 15%; with SW480, below 10%; in the test with NCI-H460, below 10%; with MCF7 it was 15%; in the test with A2780, 14%; in the test on DU-145, below 10%. The inhibition at 100 µM (in the test on A-431; in test [1]; in [2]) was below 10% throughout.
`NCCC[C@@H](C(=O)O)N1C(=O)[C@H]2CNC[C@H]2C1=O`: the inhibition at 100 µM in the test on HT-29 is 12%; in the test with SW480, 11%; in the test with NCI-H460, 16%; in the test with MCF7, 22%; in the test with A2780, 11%; in the test on DU-145, below 10%. Also, the inhibition at 100 µM is 16% with A-431, 23% in test [1] and below 10% in test [2].
Turning to `O=C1[C@H]2CNC[C@H]2C(=O)N1CCN1CCOCC1`, the inhibition at 100 µM with HT-29 was below 10%; in the test with SW480, below 10%; with NCI-H460, below 10%; with MCF7 it was 11%; with A2780 it was below 10%; with DU-145, below 10%. Also, the inhibition at 100 µM in the test on A-431 was 10%; in test [1], below 10%; in test [2], below 10%.
`CC(CO)N1C(=O)[C@H]2CNC[C@H]2C1=O` (stereo not given in full): the inhibition at 100 µM is 15% in the test with HT-29; below 10% with SW480; below 10% in the test with NCI-H460; below 10% with MCF7; below 10% in the test on A2780; below 10% in the test with DU-145. Further, the inhibition at 100 µM (in the test on A-431; in test [1]; in test [2]) was below 10% throughout.
Regarding `CCC(CO)N1C(=O)[C@H]2CNC[C@H]2C1=O` (stereo not given in full), the inhibition at 100 µM with HT-29, with SW480, in the test on NCI-H460, in the test on MCF7, with A2780 and in the test with DU-145 was below 10% in each case. The inhibition at 100 µM (in the test on A-431; in test [1]; in test [2]) was below 10% in each case.
Take `O=C(O)[C@H](Cc1c[nH]cn1)N1C(=O)[C@H]2CSC[C@H]2C1=O`: the inhibition at 100 µM is 10% in the test with HT-29; below 10% in the test on SW480; 10% with NCI-H460; 15% in the test with MCF7; below 10% with A2780; below 10% with DU-145. Also, the figures for the inhibition at 100 µM (in the test with A-431; in test [1]; in test [2]) were below 10%, 14% and below 10%, respectively.
For `NCCCC[C@@H](C(=O)O)N1C(=O)[C@H]2CSC[C@H]2C1=O`, the inhibition at 100 µM with HT-29 was 22%; in the test with SW480, below 10%; in the test on NCI-H460, 19%; in the test on MCF7, 30%; in the test on A2780 it was 16%; in the test on DU-145, below 10%. In addition, the inhibition at 100 µM in the test on A-431 came to 19%; in test [1] it was 22%; in test [2], 10%.
As for `CCC(CO)N1C(=O)[C@H]2CSC[C@H]2C1=O` (stereo not given in full), the inhibition at 100 µM in the test on HT-29, with SW480, in the test with NCI-H460, in the test on MCF7, with A2780 and in the test on DU-145 was below 10% in each case. Also, the inhibition at 100 µM (with A-431; in [1]; in test [2]) was below 10% each time.
With `O=C1[C@H]2CN(Cc3ccccc3)C[C@H]2C(=O)N1CCN1CCOCC1`, the inhibition at 100 µM with HT-29 is 45%; in the test with SW480, 49%; in the test with NCI-H460, below 10%; in the test on MCF7 it was 51%; in the test on A2780, 33%; in the test with DU-145, 25%. In addition, the inhibition at 100 µM is 11% with A-431, 12% in test [1] and 25% in [2].
Take `O=C1[C@H]2COC[C@H]2C(=O)N1CCN1CCOCC1`: the inhibition at 100 µM with HT-29 was below 10%; with SW480 it was below 10%; in the test with NCI-H460, below 10%; with MCF7, below 10%; with A2780 it was 13%; with DU-145, below 10%. Further, the inhibition at 100 µM (in the test on A-431; in test [1]; in test [2]) was below 10% each time.
Consider `O=C(O)C[C@@H](C(=O)O)N1C(=O)[C@H]2COC[C@H]2C1=O`, for which the inhibition at 100 µM in the test with HT-29 is 14%; in the test with SW480 it was below 10%; with NCI-H460, below 10%; in the test on MCF7 it was 13%; with A2780, 15%; in the test on DU-145, below 10%. Further, the inhibition at 100 µM (with A-431; in [1]; in test [2]) was below 10% throughout.
`O=C(O)[C@H](Cc1c[nH]cn1)N1C(=O)[C@H]2COC[C@H]2C1=O`: the inhibition at 100 µM came out at 26% in the test with HT-29; 18% in the test with SW480; 21% with NCI-H460; 20% with MCF7; 23% in the test with A2780; 11% in the test with DU-145. The results for the inhibition at 100 µM (in the test on A-431; in test [1]; in test [2]) were 26%, 22% and 15%, respectively.
On to `CCOC(=O)C[C@@H](C(=O)OCC)N1C(=O)[C@H]2COC[C@H]2C1=O`, for which the inhibition at 100 µM was 16% with HT-29; below 10% in the test on SW480; below 10% in the test on NCI-H460; 16% in the test on MCF7; 15% in the test with A2780; below 10% with DU-145. Moreover, the inhibition at 100 µM (in the test on A-431; in test [1]; in test [2]) was below 10% throughout.
Take `CCOC(=O)CC[C@@H](C(=O)OCC)N1C(=O)[C@H]2COC[C@H]2C1=O`: the inhibition at 100 µM worked out at 30% with HT-29; 34% with SW480; 13% in the test on NCI-H460; 28% with MCF7; 29% in the test with A2780; 20% in the test with DU-145. For the same compound, the values for the inhibition at 100 µM (with A-431; in test [1]; in test [2]) were 13%, below 10% and below 10%, respectively.
For `NCCC[C@@H](C(=O)O)N1C(=O)[C@H]2COC[C@H]2C1=O`, the inhibition at 100 µM in the test with HT-29, with SW480, with NCI-H460, in the test with MCF7, with A2780 and in the test with DU-145 was below 10% in each case. For the same compound, the inhibition at 100 µM with A-431 was 10%; in [1], below 10%; in [2] it was 32%.
Take `NCCCC[C@@H](C(=O)O)N1C(=O)[C@H]2COC[C@H]2C1=O`: the inhibition at 100 µM in the test with HT-29 was determined as 30%; in the test on SW480, 30%; with NCI-H460 it was 27%; in the test on MCF7, 37%; with A2780 it was 31%; with DU-145, 17%. Further, the inhibition at 100 µM in the test on A-431 is 35%; in test [1], 32%; in test [2], 23%.
Take `NCC[C@@H](C(=O)O)N1C(=O)[C@H]2CNC[C@H]2C1=O`: the inhibition at 100 µM with HT-29, in the test with SW480, in the test on NCI-H460, in the test with MCF7, with A2780 and in the test with DU-145 was below 10% each time. For the same compound, the inhibition at 100 µM (with A-431; in [1]; in test [2]) was below 10% throughout.
With `CC(CO)N1C(=O)[C@H]2COC[C@H]2C1=O` (stereo not given in full), the inhibition at 100 µM was below 10% in the test with HT-29; below 10% in the test with SW480; 10% with NCI-H460; below 10% in the test on MCF7; 13% in the test with A2780; below 10% in the test on DU-145. The inhibition at 100 µM (in the test on A-431; in [1]; in test [2]) was below 10% each time.
For `CCC(CO)N1C(=O)[C@H]2COC[C@H]2C1=O` (stereo not given in full), the inhibition at 100 µM with HT-29 was below 10%; in the test with SW480, below 10%; in the test with NCI-H460, below 10%; in the test with MCF7, below 10%; with A2780, 13%; in the test on DU-145 it was below 10%. Also, the inhibition at 100 µM (in the test on A-431; in test [1]; in test [2]) was below 10% throughout.
